Data: PubChem BioAssay (NCI)
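Growth conditions: 96-well plates. Treatment: test compound, 48 hours, 5 concentrations. Analysis: linear interpolation between bracketing concentrations; unreached endpoints set to highest concentration. GI50 is the concentration that inhibits growth by half. TGI is the concentration that stops growth completely.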

Assays:
Experiment in all cases: inhibition of tumour cell growth, NCI panel, 48 h
786-0 renal = test system: 786-0 renal
A498 renal = test system: A498 renal
A549 NSCLC = test system: A549 NSCLC
ACHN renal = test system: ACHN renal
BT-549 breast = test system: BT-549 breast
CAKI-1 renal = test system: CAKI-1 renal
CCRF-CEM leukemia = test system: CCRF-CEM leukemia
COLO 205 colon = test system: COLO 205 colon
DU-145 prostate = test system: DU-145 prostate
EKVX NSCLC = test system: EKVX NSCLC
HCC-2998 colon = test system: HCC-2998 colon
HCT-116 colon = test system: HCT-116 colon
HCT-15 colon = test system: HCT-15 colon
HL-60(TB) leukemia = test system: HL-60(TB) leukemia
HOP-62 NSCLC = test system: HOP-62 NSCLC
HOP-92 NSCLC = test system: HOP-92 NSCLC
HS 578T breast = test system: HS 578T breast
HT29 colon = test system: HT29 colon
IGROV1 ovarian = test system: IGROV1 ovarian
K-562 leukemia = test system: K-562 leukemia
KM12 colon = test system: KM12 colon
LOX IMVI melanoma = test system: LOX IMVI melanoma
M14 melanoma = test system: M14 melanoma
MALME-3M melanoma = test system: MALME-3M melanoma
MCF7 breast = test system: MCF7 breast
MDA-MB-231 breast = test system: MDA-MB-231 breast
MDA-MB-435 = test system: MDA-MB-435
MDA-MB-468 breast = test system: MDA-MB-468 breast
MOLT-4 leukemia = test system: MOLT-4 leukemia
NCI-H226 lung = test system: NCI-H226 lung
NCI-H23 lung = test system: NCI-H23 lung
NCI-H460 lung = test system: NCI-H460 lung
NCI-H522 lung = test system: NCI-H522 lung
NCI/ADR-RES ovarian = test system: NCI/ADR-RES ovarian
OVCAR-3 ovarian = test system: OVCAR-3 ovarian
OVCAR-4 ovarian = test system: OVCAR-4 ovarian
OVCAR-5 ovarian = test system: OVCAR-5 ovarian
OVCAR-8 ovarian = test system: OVCAR-8 ovarian
PC-3 prostate = test system: PC-3 prostate
RPMI-8226 leukemia = test system: RPMI-8226 leukemia
RXF 393 renal = test system: RXF 393 renal
SF-268 CNS = test system: SF-268 CNS
SF-295 CNS = test system: SF-295 CNS
SF-539 CNS = test system: SF-539 CNS
SK-MEL-2 melanoma = test system: SK-MEL-2 melanoma
SK-MEL-28 melanoma = test system: SK-MEL-28 melanoma
SK-MEL-5 melanoma = test system: SK-MEL-5 melanoma
SK-OV-3 ovarian = test system: SK-OV-3 ovarian
SN12C renal = test system: SN12C renal
SNB-19 CNS = test system: SNB-19 CNS
SNB-75 CNS = test system: SNB-75 CNS
SR leukemia = test system: SR leukemia
SW-620 colon = test system: SW-620 colon
T-47D breast = test system: T-47D breast
TK-10 renal = test system: TK-10 renal
U251 CNS = test system: U251 CNS
UACC-257 melanoma = test system: UACC-257 melanoma
UACC-62 melanoma = test system: UACC-62 melanoma
UO-31 renal = test system: UO-31 renal

SMILES: O=C(CNc1nc(-c2ccccc2)cs1)Nc1ccc([N+](=O)[O-])cc1Cl
- GI50 (786-0 renal): 3.3 µM
- TGI (786-0 renal): 13.2 µM
- GI50 (A498 renal): 7.11 µM
- TGI (A498 renal): 20.1 µM
- GI50 (A549 NSCLC): 6.05 µM
- TGI (A549 NSCLC): 19 µM
- GI50 (ACHN renal): 5.51 µM
- TGI (ACHN renal): 18.2 µM
- GI50 (BT-549 breast): 2.29 µM
- TGI (BT-549 breast): 7.66 µM
- GI50 (CAKI-1 renal): 3.34 µM
- TGI (CAKI-1 renal): 14.5 µM
- GI50 (CCRF-CEM leukemia): 3.05 µM
- TGI (CCRF-CEM leukemia): 12.2 µM
- GI50 (COLO 205 colon): 11.5 µM
- TGI (COLO 205 colon): 23.7 µM
- GI50 (DU-145 prostate): 10.6 µM
- TGI (DU-145 prostate): 22.5 µM
- GI50 (EKVX NSCLC): 3.44 µM
- TGI (EKVX NSCLC): 14.3 µM
- GI50 (HCC-2998 colon): 6.94 µM
- TGI (HCC-2998 colon): 19.7 µM
- GI50 (HCT-116 colon): 3.36 µM
- TGI (HCT-116 colon): 12.6 µM
- GI50 (HCT-15 colon): 3.34 µM
- TGI (HCT-15 colon): 12.8 µM
- GI50 (HL-60(TB) leukemia): 2.8 µM
- TGI (HL-60(TB) leukemia): 11 µM
- GI50 (HOP-62 NSCLC): 7.02 µM
- TGI (HOP-62 NSCLC): 20 µM
- GI50 (HOP-92 NSCLC): 4.28 µM
- TGI (HOP-92 NSCLC): 16.7 µM
- GI50 (HS 578T breast): 3.74 µM
- TGI (HS 578T breast): 15.1 µM
- GI50 (HT29 colon): 7.63 µM
- TGI (HT29 colon): 20.4 µM
- GI50 (IGROV1 ovarian): 4.29 µM
- TGI (IGROV1 ovarian): 15.5 µM
- GI50 (K-562 leukemia): 3.42 µM
- TGI (K-562 leukemia): 13.9 µM
- GI50 (KM12 colon): 4.17 µM
- TGI (KM12 colon): 14.9 µM
- GI50 (LOX IMVI melanoma): 2.96 µM
- TGI (LOX IMVI melanoma): 11.7 µM
- GI50 (M14 melanoma): 3.6 µM
- TGI (M14 melanoma): 13.5 µM
- GI50 (MALME-3M melanoma): 9 µM
- TGI (MALME-3M melanoma): 21 µM
- GI50 (MCF7 breast): 3.26 µM
- TGI (MCF7 breast): 13.4 µM
- GI50 (MDA-MB-231 breast): 4.94 µM
- TGI (MDA-MB-231 breast): 17.1 µM
- GI50 (MDA-MB-435): 4.88 µM
- TGI (MDA-MB-435): 16.9 µM
- GI50 (MDA-MB-468 breast): 1.96 µM
- TGI (MDA-MB-468 breast): 4.88 µM
- GI50 (MOLT-4 leukemia): 3.17 µM
- TGI (MOLT-4 leukemia): 11.6 µM
- GI50 (NCI-H226 lung): 6.78 µM
- TGI (NCI-H226 lung): 19.3 µM
- GI50 (NCI-H23 lung): 4.6 µM
- TGI (NCI-H23 lung): 17 µM
- GI50 (NCI-H460 lung): 9.34 µM
- TGI (NCI-H460 lung): 21.2 µM
- GI50 (NCI-H522 lung): 2.9 µM
- TGI (NCI-H522 lung): 12 µM
- GI50 (NCI/ADR-RES ovarian): 4.11 µM
- TGI (NCI/ADR-RES ovarian): 14.6 µM
- GI50 (OVCAR-3 ovarian): 3.62 µM
- TGI (OVCAR-3 ovarian): 14.1 µM
- GI50 (OVCAR-4 ovarian): 6.55 µM
- TGI (OVCAR-4 ovarian): 19.5 µM
- GI50 (OVCAR-5 ovarian): 6.18 µM
- TGI (OVCAR-5 ovarian): 20.2 µM
- GI50 (OVCAR-8 ovarian): 5.69 µM
- TGI (OVCAR-8 ovarian): 18.3 µM
- GI50 (PC-3 prostate): 5.17 µM
- TGI (PC-3 prostate): 17.9 µM
- GI50 (RPMI-8226 leukemia): 2.99 µM
- TGI (RPMI-8226 leukemia): 13.2 µM
- GI50 (RXF 393 renal): 4.38 µM
- TGI (RXF 393 renal): 15 µM
- GI50 (SF-268 CNS): 3.98 µM
- TGI (SF-268 CNS): 16.2 µM
- GI50 (SF-295 CNS): 4.47 µM
- TGI (SF-295 CNS): 16.6 µM
- GI50 (SF-539 CNS): 5.36 µM
- TGI (SF-539 CNS): 17.6 µM
- GI50 (SK-MEL-2 melanoma): 8.86 µM
- TGI (SK-MEL-2 melanoma): 21 µM
- GI50 (SK-MEL-28 melanoma): 12.1 µM
- TGI (SK-MEL-28 melanoma): 24.5 µM
- GI50 (SK-MEL-5 melanoma): 3.66 µM
- TGI (SK-MEL-5 melanoma): 14 µM
- GI50 (SK-OV-3 ovarian): 6.18 µM
- TGI (SK-OV-3 ovarian): 19.2 µM
- GI50 (SN12C renal): 3.72 µM
- TGI (SN12C renal): 13.9 µM
- GI50 (SNB-19 CNS): 7.71 µM
- TGI (SNB-19 CNS): 20.3 µM
- GI50 (SNB-75 CNS): 1.73 µM
- TGI (SNB-75 CNS): 9.94 µM
- GI50 (SR leukemia): 4.67 µM
- TGI (SR leukemia): 17.4 µM
- GI50 (SW-620 colon): 4.47 µM
- TGI (SW-620 colon): 16.2 µM
- GI50 (T-47D breast): 3.37 µM
- TGI (T-47D breast): 13.5 µM
- GI50 (TK-10 renal): 8.04 µM
- TGI (TK-10 renal): 20.5 µM
- GI50 (U251 CNS): 4.42 µM
- TGI (U251 CNS): 16.8 µM
- GI50 (UACC-257 melanoma): 7.55 µM
- TGI (UACC-257 melanoma): 20.2 µM
- GI50 (UACC-62 melanoma): 3.6 µM
- TGI (UACC-62 melanoma): 15.4 µM
- GI50 (UO-31 renal): 3.37 µM
- TGI (UO-31 renal): 15.5 µM
